Laboratory results: EP1137645B1, “ALPHA-METHYLBENZYL-CONTAINING THIOUREA INHIBITORS OF HERPES VIRUSES CONTAINING A […] GROUP” (Wyeth, priority 1998, dated 2000)
≈ marks a conversion by molar mass, not a printed value. Read-outs that look alike come from different tables or passages of the source.

Columns and labels:
[1] = test system: HCMV recombinant mutant virus whose genome contains the prokaryotic beta-glucuronidase gene; experiment: microbe, parasite or virus in culture; format: cell-based, human cytomegalovirus; conditions: Human betaherpesvirus 5, Fibroblast
Summary of the method: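 Human foreskin fibroblasts infected with HCMV recombinant carrying beta-glucuronidase under a viral promoter (e.g. RV145) in presence of compound. At 96 h post-infection, lysates assayed for beta-glucuronidase by colorimetric or fluorogenic substrate as replication readout; IC50 estimated from varying compound amounts.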

HSV- I = experiment: HSV antiviral (ELISA) assay; format: cell-based; conditions: read-out: IC50 (ug/ml) HSV
Summary of the method: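 Vero cells in DMEM with 2% FBS treated with compound 30 min before HSV-1 infection (MOI 0.006), then incubated ~24 h at 37°C. Viral replication measured by ELISA against glycoprotein D with β-galactosidase-linked secondary and fluorogenic substrate (ex 365/em 450 nm); IC50 relative to untreated fluorescence.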

VZV strain Ellen = experiment: VZV antiviral (ELISA) assay; format: cell-based
Summary of the method: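 HFF cells infected with VZV Ellen at multiplicity below 0.1 overnight, then mixed infected/uninfected cells seeded with compound in DMEM/2% FBS and incubated three days at 37°C, 5% CO2.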

[2] = Human alphaherpesvirus 3, VZV strain Ellen, HFF cells, ELISA, read-out: IC50 (ug/ml) VZV
[3] = read-out: IC50 ug/ml HCMV, HCMV, human foreskin fibroblasts
[4] = Human alphaherpesvirus 3, HFF, read-out: IC50 (ug/ml) VZV, VZV strain Ellen, HFF cells, ELISA
[5] = Human alphaherpesvirus 3, HFF, read-out: % inhibition 10 ug/ml VZV
[6] = Human alphaherpesvirus 3, HFF, read-out: IC50 (ug/ml) VZV

| Compound | IC50 ([1]; read-out: IC50 ug/ml HCMV) [µg/mL] | IC50 (HSV- I; HSV- I, Vero cells, ELISA) [µg/mL] | IC50 (VZV strain Ellen; [2]) [µg/mL] | IC50 [1, 3] [µg/mL] | IC50 (HSV- I; Vero) [µg/mL] | IC50 (VZV strain Ellen; [4]) [µg/mL] | inhibition at 10 µg/mL (VZV strain Ellen; [5]) [%] | IC50 (VZV strain Ellen; [6]) [µg/mL] | inhibition at 10 µg/mL (VZV strain Ellen; Human alphaherpesvirus 3, read-out: % inhibition 10 ug/ml VZV, 10 ug/ml, VZV strain Ellen, HFF cells, ELISA) [%] |
| --- | --- | --- | --- | --- | --- | --- | --- | --- | --- |
| CC(NC(=S)Nc1ccc(NC(=O)c2cccc(F)c2)cc1)c1ccc(F)cc1 (stereo not drawn) [Example 800, 3-Fluoro-N-(4-{3-[1-(4-fluoro-phenyl)-ethyl]-thioureido}-phenyl)-benzamide] | > 10 | > 10 | > 7.5 | – | – | – | – | – | – |
| CC(NC(=S)Nc1ccc(NC(=O)c2ccc(F)cc2)cc1)c1ccc(F)cc1 (stereo not drawn) [Example 801, 4-Fluoro-N-(4-{3-[1-(4-fluoro-phenyl)-ethyl]-thioureido}-phenyl)-benzamide] | > 10 | > 10 | > 7.5 | – | – | – | – | – | – |
| CCOc1ccc(NC(=S)Nc2ccc(NC(=O)c3ccccc3F)cc2)cc1Cl [Example 806, N-{4-[3-(3-Chloro-4-ethoxy-phenyl)-thioureido]-phenyl}-2-fluoro-benzamide] | – | – | – | > 10 | > 10 | > 7.5 | – | – | – |
| CCCOc1ccc(NC(=S)Nc2ccc(NC(=O)c3ccccc3F)cc2)cc1Cl [Example 807, N-{4-[3-(3-Chloro-4-propoxy-phenyl)-thioureido]-phenyl}-2-fluoro-benzamide] | – | – | – | 10 (≈ 21.8 µM) | > 10 | 0.9 (≈ 1.97 µM) | – | – | – |
| CC(C)Oc1ccc(NC(=S)Nc2ccc(NC(=O)c3ccccc3F)cc2)cc1Cl [Example 808, N-{4-[3-(3-Chloro-4-isopropoxy-phenyl)-thioureido]-phenyl}-2-fluoro-benzamide] | – | – | – | > 10 | > 10 | > 7.5 | – | – | – |
| CCCCOc1ccc(NC(=S)Nc2ccc(NC(=O)c3ccccc3F)cc2)cc1Cl [Example 809, N-{4-[3-(4-Butoxy-3-chloro-phenyl)-thioureido]-phenyl}-2-fluoro-benzamide] | – | – | – | > 10 | > 10 | > 7.5 | – | – | – |
| COc1ccc(NC(=S)Nc2ccc(NC(=O)c3ccccc3F)cc2)cc1I [Example 810, 2-Fluoro-N-{4-[3-(3-iodo-4-methoxy-phenyl)-thioureido]-phenyl}-benzamide] | 2.7 (≈ 5.18 µM) | 1.1 (≈ 2.11 µM) | > 7.5 | – | – | – | – | – | – |
| COc1ccc(NC(=S)Nc2ccc(NC(=O)c3ccccc3F)cc2)cc1Br [Example 811, N-{4-[3-(3-Bromo-4-methoxy-phenyl)-thioureido]-phenyl}-2-fluoro-benzamide] | – | – | – | 3.1 (≈ 6.54 µM) | 0.8 (≈ 1.69 µM) | > 7.5 | – | – | – |
| COc1ccc(NC(=S)Nc2ccc(NC(=O)c3ccccc3)cc2)cc1Cl [Example 817, N-{4-[3-(3-Chloro-4-methoxy-phenyl)-thioureido]-phenyl}-benzamide] | – | 1 (≈ 2.43 µM) | – | 2 (≈ 4.86 µM) | – | – | 66 | 12 (≈ 29.1 µM) | – |
| COc1ccc(NC(=S)Nc2ccc(NC(=O)c3ccccc3OC)cc2)cc1Cl [Example 818, N-{4-[3-(3-Chloro-4-methoxy-phenyl)-thioureido]-phenyl}-2-methoxy-benzamide] | – | 1.2 (≈ 2.72 µM) | – | 4 (≈ 9.05 µM) | – | – | 32 | > 10 | – |
| COc1cccc(C(=O)Nc2ccc(NC(=S)Nc3ccc(OC)c(Cl)c3)cc2)c1 [Example 819, N-{4-[3-(3-Chloro-4-methoxy-phenyl)-thioureido]-phenyl}-3-methoxy-benzamide] | – | 6 (≈ 13.6 µM) | – | 4 (≈ 9.05 µM) | – | – | 93 | 2.5 (≈ 5.66 µM) | – |
| COc1ccc(C(=O)Nc2ccc(NC(=S)Nc3ccc(OC)c(Cl)c3)cc2)cc1 [Example 820, N-{4-[3-(3-Chloro-4-methoxy-phenyl)-thioureido]-phenyl}-4-methoxy-benzamide] | – | 4 (≈ 9.05 µM) | – | 8 (≈ 18.1 µM) | – | – | 20 | > 10 | – |
| COc1ccc(NC(=S)Nc2ccc(NC(=O)c3cccc(F)c3)cc2)cc1Cl [Example 822, N-{4-[3-(3-Chloro-4-methoxy-phenyl)-thioureido]-phenyl}-3-fluoro-benzamide] | – | 3 (≈ 6.98 µM) | – | 3 (≈ 6.98 µM) | – | – | 0 | > 10 | – |
| COc1ccc(NC(=S)Nc2ccc(NC(=O)c3ccc(F)cc3)cc2)cc1Cl [Example 823, N-{4-[3-(3-Chloro-4-methoxy-phenyl)-thioureido]-phenyl}-4-fluoro-benzamide] | – | 6 (≈ 14 µM) | – | 6 (≈ 14 µM) | – | – | 7 | > 10 | – |
| COc1cc(OC)c(NC(=S)Nc2ccc(NC(=O)c3ccccc3F)cc2)cc1Br [Example 827, N-{4-[3-(5-Bromo-2,4-dimethoxy-phenyl)-thioureido]-phenyl}-2-fluoro-benzamide] | – | 0.2 (≈ 0.397 µM) | – | 10 (≈ 19.8 µM) | – | – | 70 | 3.5 (≈ 6.94 µM) | – |
| COc1cc(OC)c(NC(=S)Nc2ccc(NC(=O)c3ccccc3C)cc2)cc1Br [Example 829, N-{4-[3-(5-Bromo-2,4-dimethoxy-phenyl)-thioureido]-phenyl}-2-methyl-benzamide] | – | 0.25 (≈ 0.5 µM) | – | 10 (≈ 20 µM) | – | – | 50 | > 15 | – |
| COc1ccc(C(=O)Nc2ccc(NC(=S)Nc3cc(Br)c(OC)cc3OC)cc2)cc1 [Example 830, N-{4-[3-(5-Bromo-2,4-dimethoxy-phenyl)-thioureido]-phenyl}-4-methoxy-benzamide] | – | 1.5 (≈ 2.9 µM) | – | > 10 | – | – | 16 | > 10 | – |
| CSc1ccc(NC(=S)Nc2ccc(NC(=O)c3ccccc3F)cc2)cc1Cl [Example 847, N-{4-[3-(3-Chloro-4-methylsulfanyl-phenyl)-thioureido]-phenyl}-2-fluoro-benzamide] | – | 0.4 (≈ 0.897 µM) | – | 0.3 (≈ 0.673 µM) | – | – | 65 | > 10 | – |
| CSc1ccc(NC(=S)Nc2ccc(NC(=O)c3c(F)cccc3F)cc2)cc1Cl [Example 848, N-{4-[3-(3-Chloro-4-methylsulfanyl-phenyl)-thioureido]-phenyl}-2,6-difluoro-benzamide] | – | 0.085 (≈ 0.183 µM) | – | 0.3 (≈ 0.647 µM) | – | – | 101 | 1.3 (≈ 2.8 µM) | – |
| COc1cc(C)c(Cl)cc1NC(=S)Nc1ccc(NC(=O)c2ccccc2F)cc1 [Example 849, N-{4-[3-(5-Chloro-2-methoxy-4-methyl-phenyl)-thioureido]-phenyl}-2-fluoro-benzamide] | – | > 10 | – | > 10 | – | – | 38 | > 10 | – |
| COc1cc(C)c(Cl)cc1NC(=S)Nc1ccc(NC(=O)c2ccccc2C)cc1 [Example 850, N-{4-[3-(5-Chloro-2-methoxy-4-methyl-phenyl)-thioureido]-phenyl}-2-methyl-benzamide] | – | 0.09 (≈ 0.205 µM) | – | 2 (≈ 4.55 µM) | – | – | 28 | 5 (≈ 11.4 µM) | – |
| CN(C)c1ccc(NC(=S)Nc2ccc(NC(=O)c3ccccc3F)cc2)cc1Cl [Example 852, N-{4-[3-(3-Chloro-4-dimethylamino-phenyl)-thioureido]-phenyl}-2-fluoro-benzamide] | – | 4 (≈ 9.03 µM) | – | 0.6 (≈ 1.35 µM) | – | – | 80 | 6.5 (≈ 14.7 µM) | – |
| CN(c1ccc(NC(=S)Nc2ccc(NC(=O)c3ccccc3F)cc2)cc1Cl)C1CCN(Cc2ccccc2)C1 (stereo not drawn) [Example 857, N-[4-(3-{4-[(1-Benzyl-pyrrolidin-3-yl)-methyl-amino]-3-chloro-phenyl)-thioureido)-phenyl]-2-fluoro-benzamide] | – | 2 (≈ 3.4 µM) | – | 6 (≈ 10.2 µM) | – | – | 80 | 7 (≈ 11.9 µM) | – |
| O=C(Nc1ccc(NC(=S)Nc2ccccc2)cc1)c1ccccc1F [Example 859, 2-Fluoro-N-[4-(3-phenyl-thioureido)-phenyl]-benzamide] | > 10 | > 10 | > 10 | – | – | – | – | – | 20 |
| CC(O)c1ccc(NC(=S)Nc2ccc(NC(=O)c3ccccc3F)cc2)cc1Cl (stereo not drawn) [Example 865, N-(4-{3-[3-Chloro-4-(1-hydroxy-ethyl)-phenyl]-thioureido}-phenyl)-2-fluoro-benzamide] | – | 4 (≈ 9.01 µM) | – | 0.3 (≈ 0.676 µM) | – | – | 52 | > 10 | – |
| CC(C)(C)c1cccc(NC(=S)Nc2ccc(NC(=O)c3ccccc3F)cc2)c1 [Example 869, N-{4-[3-(3-tert-Butyl-phenyl)-thioureido]-phenyl}-2-fluoro-benzamide] | – | 5.5 (≈ 13 µM) | – | 2.5 (≈ 5.93 µM) | – | – | 77 | 3 (≈ 7.12 µM) | – |
| COc1c(Cl)cc(NC(=S)Nc2ccc(NC(=O)c3cccc(F)c3)cc2)cc1Cl [Example 872, N-{4-[3-(3,5-Dichloro-4-methoxy-phenyl)-thioureido]-phenyl}-3-fluoro-benzamide] | – | 4 (≈ 8.61 µM) | – | 0.6 (≈ 1.29 µM) | – | – | 28 | > 10 | – |
| COc1ccccc1C(=O)Nc1ccc(NC(=S)Nc2cc(Cl)c(OC)c(Cl)c2)cc1 [Example 873, N-{4-[3-(3,5-Dichloro-4-methoxy-phenyl)-thioureido]-phenyl}-2-methoxy-benzamide] | – | > 10 | – | 0.3 (≈ 0.63 µM) | – | – | 23 | > 10 | – |
| COc1c(Cl)cc(NC(=S)Nc2ccc(NC(=O)c3ccccc3F)cc2)cc1Cl [Example 874, N-{4-[3-(3,5-Dichloro-4-methoxy-phenyl)-thioureido]-phenyl}-2-fluoro-benzamide] | – | 5 (≈ 10.8 µM) | – | 0.2 (≈ 0.431 µM) | – | – | 75 | 3.5 (≈ 7.54 µM) | – |
